Assays:
Assay in all cases: cell-based
Design in all cases: PathHunter eXpress functional assay (DiscoverX tkMAX), inhibition of reference ligand response
Settings in all cases: read-out: % Inhibition of reference binding (Table 3)
EphA7 = EphA7 (Homo sapiens, UniProt Q15375)
c-KIT = c-KIT (Homo sapiens, UniProt P10721)
INSRb = target: T1, INSRb (Homo sapiens, UniProt P06213)
T1 construct: gene INSR; isoform b

PDGFRb = PDGFRb (Homo sapiens, UniProt P09619)
ErbB4 = ErbB4 (Homo sapiens, UniProt Q15303)
ErbB4, sequence (Q15303 whole entry): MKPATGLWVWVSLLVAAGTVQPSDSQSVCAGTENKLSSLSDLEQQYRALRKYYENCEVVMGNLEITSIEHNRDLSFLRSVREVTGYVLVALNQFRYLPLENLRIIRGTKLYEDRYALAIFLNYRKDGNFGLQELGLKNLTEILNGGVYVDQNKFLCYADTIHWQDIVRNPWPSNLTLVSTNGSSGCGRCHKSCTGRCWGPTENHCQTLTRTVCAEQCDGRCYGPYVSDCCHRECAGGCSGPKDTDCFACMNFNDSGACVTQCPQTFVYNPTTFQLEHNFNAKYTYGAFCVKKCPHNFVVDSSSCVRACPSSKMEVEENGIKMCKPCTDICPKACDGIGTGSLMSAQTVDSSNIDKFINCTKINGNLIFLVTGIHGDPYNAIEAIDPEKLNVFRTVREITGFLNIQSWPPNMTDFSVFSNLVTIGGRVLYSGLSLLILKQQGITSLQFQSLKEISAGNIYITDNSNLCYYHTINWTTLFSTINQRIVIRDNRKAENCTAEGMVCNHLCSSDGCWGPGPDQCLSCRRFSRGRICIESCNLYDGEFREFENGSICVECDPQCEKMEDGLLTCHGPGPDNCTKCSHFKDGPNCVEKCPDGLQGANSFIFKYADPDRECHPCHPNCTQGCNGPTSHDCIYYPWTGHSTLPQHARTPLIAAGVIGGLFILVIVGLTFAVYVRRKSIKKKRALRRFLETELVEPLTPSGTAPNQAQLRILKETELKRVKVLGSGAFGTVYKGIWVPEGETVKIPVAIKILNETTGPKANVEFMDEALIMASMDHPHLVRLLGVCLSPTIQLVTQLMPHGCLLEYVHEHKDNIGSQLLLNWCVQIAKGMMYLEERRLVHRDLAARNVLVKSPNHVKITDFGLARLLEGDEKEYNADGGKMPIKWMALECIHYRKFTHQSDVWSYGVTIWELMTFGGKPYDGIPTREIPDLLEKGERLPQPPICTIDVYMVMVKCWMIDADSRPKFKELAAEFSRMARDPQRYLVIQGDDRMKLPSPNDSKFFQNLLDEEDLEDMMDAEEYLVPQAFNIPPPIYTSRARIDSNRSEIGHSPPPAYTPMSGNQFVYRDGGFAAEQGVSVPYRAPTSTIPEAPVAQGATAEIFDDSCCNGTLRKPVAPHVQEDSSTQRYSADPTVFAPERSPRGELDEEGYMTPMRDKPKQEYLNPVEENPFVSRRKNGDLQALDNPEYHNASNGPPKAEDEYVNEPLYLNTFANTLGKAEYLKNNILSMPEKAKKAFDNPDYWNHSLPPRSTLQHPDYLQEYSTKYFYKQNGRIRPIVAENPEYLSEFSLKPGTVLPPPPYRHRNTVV

FLT4 = FLT4 (Homo sapiens, UniProt P35916)
FLT4, sequence (P35916 whole entry): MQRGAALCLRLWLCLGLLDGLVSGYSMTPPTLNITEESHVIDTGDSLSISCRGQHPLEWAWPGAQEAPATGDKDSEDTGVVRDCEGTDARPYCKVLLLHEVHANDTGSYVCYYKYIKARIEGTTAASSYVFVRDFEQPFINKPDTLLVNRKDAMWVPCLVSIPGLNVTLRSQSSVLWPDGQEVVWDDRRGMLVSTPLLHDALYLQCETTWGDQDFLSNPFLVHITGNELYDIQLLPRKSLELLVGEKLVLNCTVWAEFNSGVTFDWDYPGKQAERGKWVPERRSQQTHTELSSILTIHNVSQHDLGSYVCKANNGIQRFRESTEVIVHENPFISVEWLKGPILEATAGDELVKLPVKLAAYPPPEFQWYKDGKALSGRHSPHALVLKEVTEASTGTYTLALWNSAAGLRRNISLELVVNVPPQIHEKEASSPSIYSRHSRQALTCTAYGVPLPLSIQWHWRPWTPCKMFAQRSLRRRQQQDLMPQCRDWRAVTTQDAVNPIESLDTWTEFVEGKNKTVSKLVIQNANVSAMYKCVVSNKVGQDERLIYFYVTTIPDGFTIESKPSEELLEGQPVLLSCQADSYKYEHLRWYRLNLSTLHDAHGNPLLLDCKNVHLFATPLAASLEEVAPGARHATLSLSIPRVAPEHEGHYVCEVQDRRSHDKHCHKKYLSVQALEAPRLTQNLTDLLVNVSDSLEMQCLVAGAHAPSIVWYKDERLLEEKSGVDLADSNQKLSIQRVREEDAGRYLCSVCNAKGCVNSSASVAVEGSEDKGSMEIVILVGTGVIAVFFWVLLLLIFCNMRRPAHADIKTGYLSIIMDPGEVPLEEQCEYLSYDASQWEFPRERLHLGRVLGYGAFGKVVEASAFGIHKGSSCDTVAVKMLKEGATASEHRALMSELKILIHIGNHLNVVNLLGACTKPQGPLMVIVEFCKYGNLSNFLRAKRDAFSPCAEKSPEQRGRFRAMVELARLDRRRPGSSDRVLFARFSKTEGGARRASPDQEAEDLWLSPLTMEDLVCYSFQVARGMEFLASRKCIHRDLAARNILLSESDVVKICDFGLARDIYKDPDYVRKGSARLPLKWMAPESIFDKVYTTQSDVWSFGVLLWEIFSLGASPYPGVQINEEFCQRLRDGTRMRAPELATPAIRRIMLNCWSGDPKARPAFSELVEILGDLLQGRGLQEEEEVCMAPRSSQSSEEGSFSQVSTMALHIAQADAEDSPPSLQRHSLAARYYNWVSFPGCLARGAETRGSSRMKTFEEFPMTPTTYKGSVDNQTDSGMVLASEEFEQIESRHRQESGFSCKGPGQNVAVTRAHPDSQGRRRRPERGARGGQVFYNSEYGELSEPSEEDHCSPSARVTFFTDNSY

EphB3 = EphB3 (Homo sapiens, UniProt P54753)
EphB4 = EphB4 (Homo sapiens, UniProt P54760)
EphB4, sequence (P54760 whole entry): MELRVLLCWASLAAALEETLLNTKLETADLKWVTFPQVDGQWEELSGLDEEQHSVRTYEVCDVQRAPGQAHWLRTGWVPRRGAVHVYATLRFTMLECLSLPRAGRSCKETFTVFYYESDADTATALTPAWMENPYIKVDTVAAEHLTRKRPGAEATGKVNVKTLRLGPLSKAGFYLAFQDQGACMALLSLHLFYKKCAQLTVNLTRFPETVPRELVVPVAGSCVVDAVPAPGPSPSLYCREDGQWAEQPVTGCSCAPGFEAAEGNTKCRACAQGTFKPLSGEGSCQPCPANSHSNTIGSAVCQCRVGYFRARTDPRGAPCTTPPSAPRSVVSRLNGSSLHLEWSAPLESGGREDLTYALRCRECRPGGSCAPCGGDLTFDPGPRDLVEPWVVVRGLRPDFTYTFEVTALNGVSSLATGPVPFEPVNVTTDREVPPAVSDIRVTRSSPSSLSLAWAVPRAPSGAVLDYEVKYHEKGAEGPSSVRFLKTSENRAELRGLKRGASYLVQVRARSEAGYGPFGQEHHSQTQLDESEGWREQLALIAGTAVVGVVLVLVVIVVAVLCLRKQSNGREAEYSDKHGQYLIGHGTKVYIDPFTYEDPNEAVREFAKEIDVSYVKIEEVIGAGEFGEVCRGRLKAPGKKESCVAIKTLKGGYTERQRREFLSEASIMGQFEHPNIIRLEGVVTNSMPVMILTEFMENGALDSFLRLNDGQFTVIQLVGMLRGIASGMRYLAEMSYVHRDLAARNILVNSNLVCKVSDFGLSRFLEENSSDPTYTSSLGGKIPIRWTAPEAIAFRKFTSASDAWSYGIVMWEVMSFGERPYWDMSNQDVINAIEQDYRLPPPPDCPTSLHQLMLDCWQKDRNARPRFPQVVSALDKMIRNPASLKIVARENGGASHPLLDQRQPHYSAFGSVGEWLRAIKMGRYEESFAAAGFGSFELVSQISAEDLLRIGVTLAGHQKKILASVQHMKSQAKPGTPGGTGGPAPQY

DDR1 = DDR1 (Homo sapiens, UniProt Q08345)
DDR1, sequence (Q08345 whole entry): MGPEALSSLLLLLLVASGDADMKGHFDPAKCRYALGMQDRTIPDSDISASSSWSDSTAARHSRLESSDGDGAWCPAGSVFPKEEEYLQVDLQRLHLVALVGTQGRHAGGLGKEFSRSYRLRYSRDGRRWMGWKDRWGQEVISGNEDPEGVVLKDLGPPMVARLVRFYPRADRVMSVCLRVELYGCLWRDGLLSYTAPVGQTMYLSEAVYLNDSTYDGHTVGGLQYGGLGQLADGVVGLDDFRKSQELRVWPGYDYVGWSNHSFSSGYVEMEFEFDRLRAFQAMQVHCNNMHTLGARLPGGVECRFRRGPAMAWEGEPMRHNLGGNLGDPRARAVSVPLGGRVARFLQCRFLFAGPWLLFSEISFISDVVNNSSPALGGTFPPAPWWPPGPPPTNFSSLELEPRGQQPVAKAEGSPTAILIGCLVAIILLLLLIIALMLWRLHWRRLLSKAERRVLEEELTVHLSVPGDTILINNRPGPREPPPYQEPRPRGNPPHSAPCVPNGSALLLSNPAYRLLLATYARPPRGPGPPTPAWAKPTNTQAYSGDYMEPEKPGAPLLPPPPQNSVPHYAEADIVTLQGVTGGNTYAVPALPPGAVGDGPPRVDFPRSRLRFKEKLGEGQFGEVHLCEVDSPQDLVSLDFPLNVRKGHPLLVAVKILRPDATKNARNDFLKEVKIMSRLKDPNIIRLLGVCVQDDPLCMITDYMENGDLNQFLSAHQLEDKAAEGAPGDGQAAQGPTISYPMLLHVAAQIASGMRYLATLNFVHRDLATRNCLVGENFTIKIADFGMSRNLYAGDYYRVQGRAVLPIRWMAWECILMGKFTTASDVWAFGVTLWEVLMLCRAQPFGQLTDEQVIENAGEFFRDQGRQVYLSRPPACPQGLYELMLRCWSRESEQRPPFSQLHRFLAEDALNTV

PDGFRa = PDGFRa (Homo sapiens, UniProt P16234)
IGF1R = IGF1R (Homo sapiens, UniProt P08069)
TrkB-P75 = target: T2, TrkB-P75 (Homo sapiens, UniProt Q16620)
T2 construct: gene NTRK2

TrkA-P75 = target: T3, TrkA-P75 (Homo sapiens, UniProt P04629)
T3 construct: gene NTRK1

inhibition at 10 µM (EphA7): 4.3%
inhibition at 10 µM (c-KIT): 7.8%
inhibition at 10 µM (INSRb): 10%
inhibition at 10 µM (PDGFRb): 4.2%
inhibition at 10 µM (ErbB4): -0.1%
inhibition at 10 µM (FLT4): 16.8%
inhibition at 10 µM (EphB3): 2.8%
inhibition at 10 µM (EphB4): 22.7%
inhibition at 10 µM (DDR1): -0.7%
inhibition at 10 µM (PDGFRa): 2.2%
inhibition at 10 µM (IGF1R): 10.1%
inhibition at 10 µM (TrkB-P75): -1.3%
inhibition at 10 µM (TrkA-P75): 13.7%
SMILES: O=C(Nc1cc(Cl)ccc1O)c1cccc(S(=O)(=O)N2CCCCC2)c1 [compound 66, BDT001]

— paper PMC5847526, “Inhibition of neuronal FLT3 receptor tyrosine kinase alleviates peripheral neuropathic pain in mice” (Nature Communications, 2018)
